Results taken from PubChem BioAssay AID1259407 (Chemical Carcinogenesis Research Information System (CCRIS), 2018).
Active and inactive are the calls of the source. The rule behind the calls is not given here.

System: CCRIS mutagenicity, Ames/micronucleus/aberration tests
Test: CCRIS mutagenicity studies
[1] = Test System: AMES SALMONELLA TYPHIMURIUM, Strain/Indicator: TA100, Metabolic Activation: NONE, Method: PREINCUBATION
[2] = Test System: AMES SALMONELLA TYPHIMURIUM, Strain/Indicator: TA1535, Metabolic Activation: NONE, Method: PREINCUBATION
[3] = Test System: AMES SALMONELLA TYPHIMURIUM, Strain/Indicator: TA1537, Metabolic Activation: NONE, Method: PREINCUBATION

Measured: mutagenic call

Brc1ccc(-c2ccccc2)cc1
inactive: Test System: AMES SALMONELLA TYPHIMURIUM, Strain/Indicator: TA98, Metabolic Activation: HAMSTER, LIVER, S-9, AROCLOR 1254, Method: PREINCUBATION inactive; negative | Test System: AMES SALMONELLA TYPHIMURIUM, Strain/Indicator: TA98, Metabolic Activation: NONE, Method: PREINCUBATION inactive; negative | Test System: AMES SALMONELLA TYPHIMURIUM, Strain/Indicator: TA98, Metabolic Activation: RAT, LIVER, S-9, AROCLOR 1254, Method: PREINCUBATION inactive; negative | Test System: AMES SALMONELLA TYPHIMURIUM, Strain/Indicator: TA100, Metabolic Activation: HAMSTER, LIVER, S-9, AROCLOR 1254, Method: PREINCUBATION inactive; negative | [1] inactive; negative | Test System: AMES SALMONELLA TYPHIMURIUM, Strain/Indicator: TA100, Metabolic Activation: RAT, LIVER, S-9, AROCLOR 1254, Method: PREINCUBATION inactive; negative | Test System: AMES SALMONELLA TYPHIMURIUM, Strain/Indicator: TA1535, Metabolic Activation: HAMSTER, LIVER, S-9, AROCLOR 1254, Method: PREINCUBATION inactive; negative | [2] inactive; negative | Test System: AMES SALMONELLA TYPHIMURIUM, Strain/Indicator: TA1535, Metabolic Activation: RAT, LIVER, S-9, AROCLOR 1254, Method: PREINCUBATION inactive; negative | Test System: AMES SALMONELLA TYPHIMURIUM, Strain/Indicator: TA1537, Metabolic Activation: HAMSTER, LIVER, S-9, AROCLOR 1254, Method: PREINCUBATION inactive; negative | [3] inactive; negative | Test System: AMES SALMONELLA TYPHIMURIUM, Strain/Indicator: TA1537, Metabolic Activation: RAT, LIVER, S-9, AROCLOR 1254, Method: PREINCUBATION inactive; negative

O=C(Cl)c1ccc([N+](=O)[O-])cc1
active: Test System: AMES SALMONELLA TYPHIMURIUM, Strain/Indicator: TA98, Metabolic Activation: HAMSTER, LIVER, S-9, AROCLOR 1254 (10%), Method: PREINCUBATION active; positive | Test System: AMES SALMONELLA TYPHIMURIUM, Strain/Indicator: TA98, Metabolic Activation: RAT, LIVER, S-9, AROCLOR 1254 (10%), Method: PREINCUBATION active; positive | Test System: AMES SALMONELLA TYPHIMURIUM, Strain/Indicator: TA100, Metabolic Activation: HAMSTER, LIVER, S-9, AROCLOR 1254 (10%), Method: PREINCUBATION active; positive | [1] active; positive | Test System: AMES SALMONELLA TYPHIMURIUM, Strain/Indicator: TA100, Metabolic Activation: RAT, LIVER, S-9, AROCLOR 1254 (10%), Method: PREINCUBATION active; positive | Test System: AMES SALMONELLA TYPHIMURIUM, Strain/Indicator: TA100, Metabolic Activation: RAT, LIVER, S-9, KANECHLOR 500, Method: PREINCUBATION active; positive | Test System: AMES SALMONELLA TYPHIMURIUM, Strain/Indicator: TA1535, Metabolic Activation: HAMSTER, LIVER, S-9, AROCLOR 1254 (10%), Method: PREINCUBATION active; positive | [2] active; positive | Test System: AMES SALMONELLA TYPHIMURIUM, Strain/Indicator: TA1535, Metabolic Activation: RAT, LIVER, S-9, AROCLOR 1254 (10%), Method: PREINCUBATION active; positive | Test System: AMES SALMONELLA TYPHIMURIUM, Strain/Indicator: TA1537, Metabolic Activation: HAMSTER, LIVER, S-9, AROCLOR 1254 (10%), Method: PREINCUBATION active; positive | [3] active; positive | Test System: AMES SALMONELLA TYPHIMURIUM, Strain/Indicator: TA1537, Metabolic Activation: RAT, LIVER, S-9, AROCLOR 1254 (10%), Method: PREINCUBATION active; positive | Test System: Ames Salmonella typhimurium, Strain/Indicator: TA100, Metabolic Activation: Rat, Liver, S9, Sodium phenobarbital and 5,6-benzoflavone (10%), Method: Preincubation active; positive | Test System: Ames Salmonella typhimurium, Strain/Indicator: TA1535, Metabolic Activation: None, Method: Preincubation active; positive | Test System: Ames Salmonella typhimurium, Strain/Indicator: TA1535, Metabolic Activation: Rat, Liver, S9, Sodium phenobarbital and 5,6-benzoflavone (10%), Method: Preincubation active; positive
inactive: End Point: In vitro chromosomal aberrations, Test System: Chinese hamster lung (CHL/IU) cells, Metabolic Activation: None inactive; negative. precipitation observed in culture medium at all doses tested. | End Point: In vitro chromosomal aberrations, Test System: Chinese hamster lung (CHL/IU) cells, Metabolic Activation: Rat, Liver, S9, Phenobarbital and 5,6-benzoflavone inactive; negative. precipitation observed in culture medium at all doses tested. | Test System: AMES SALMONELLA TYPHIMURIUM, Strain/Indicator: TA98, Metabolic Activation: HAMSTER, LIVER, S-9, AROCLOR 1254, Method: STANDARD PLATE inactive; negative | Test System: AMES SALMONELLA TYPHIMURIUM, Strain/Indicator: TA98, Metabolic Activation: NONE, Method: STANDARD PLATE inactive; negative | Test System: AMES SALMONELLA TYPHIMURIUM, Strain/Indicator: TA98, Metabolic Activation: RAT, LIVER, S-9, AROCLOR 1254, Method: STANDARD PLATE inactive; negative | Test System: AMES SALMONELLA TYPHIMURIUM, Strain/Indicator: TA98, Metabolic Activation: RAT, LIVER, S-9, KANECHLOR 500, Method: PREINCUBATION inactive; negative | Test System: AMES SALMONELLA TYPHIMURIUM, Strain/Indicator: TA100, Metabolic Activation: HAMSTER, LIVER, S-9, AROCLOR 1254, Method: STANDARD PLATE inactive; negative | Test System: AMES SALMONELLA TYPHIMURIUM, Strain/Indicator: TA100, Metabolic Activation: NONE, Method: STANDARD PLATE inactive; negative | Test System: AMES SALMONELLA TYPHIMURIUM, Strain/Indicator: TA100, Metabolic Activation: RAT, LIVER, S-9, AROCLOR 1254, Method: STANDARD PLATE inactive; negative | Test System: AMES SALMONELLA TYPHIMURIUM, Strain/Indicator: TA1535, Metabolic Activation: HAMSTER, LIVER, S-9, AROCLOR 1254, Method: STANDARD PLATE inactive; negative | Test System: AMES SALMONELLA TYPHIMURIUM, Strain/Indicator: TA1535, Metabolic Activation: NONE, Method: STANDARD PLATE inactive; negative | Test System: AMES SALMONELLA TYPHIMURIUM, Strain/Indicator: TA1535, Metabolic Activation: RAT, LIVER, S-9, AROCLOR 1254, Method: STANDARD PLATE inactive; negative | Test System: AMES SALMONELLA TYPHIMURIUM, Strain/Indicator: TA1537, Metabolic Activation: HAMSTER, LIVER, S-9, AROCLOR 1254, Method: STANDARD PLATE inactive; negative | Test System: AMES SALMONELLA TYPHIMURIUM, Strain/Indicator: TA1537, Metabolic Activation: NONE, Method: STANDARD PLATE inactive; negative | Test System: AMES SALMONELLA TYPHIMURIUM, Strain/Indicator: TA1537, Metabolic Activation: RAT, LIVER, S-9, AROCLOR 1254, Method: STANDARD PLATE inactive; negative | Test System: AMES SALMONELLA TYPHIMURIUM, Strain/Indicator: TA1538, Metabolic Activation: HAMSTER, LIVER, S-9, AROCLOR 1254, Method: STANDARD PLATE inactive; negative | Test System: AMES SALMONELLA TYPHIMURIUM, Strain/Indicator: TA1538, Metabolic Activation: NONE, Method: STANDARD PLATE inactive; negative | Test System: AMES SALMONELLA TYPHIMURIUM, Strain/Indicator: TA1538, Metabolic Activation: RAT, LIVER, S-9, AROCLOR 1254, Method: STANDARD PLATE inactive; negative | Test System: Ames Salmonella typhimurium, Strain/Indicator: TA1537, Metabolic Activation: None, Method: Preincubation inactive; negative | Test System: Ames Salmonella typhimurium, Strain/Indicator: TA1537, Metabolic Activation: Rat, Liver, S9, Sodium phenobarbital and 5,6-benzoflavone (10%), Method: Preincubation inactive; negative | Test System: E. coli, Strain/Indicator: WP2uvrA/pKM101, Metabolic Activation: None, Method: Preincubation inactive; negative | Test System: E. coli, Strain/Indicator: WP2uvrA/pKM101, Metabolic Activation: Rat, Liver, S9, Sodium phenobarbital and 5,6-benzoflavone (10%), Method: Preincubation inactive; negative | Test System: MOUSE LYMPHOMA, Strain/Indicator: L5178Y (TK+/TK-), Metabolic Activation: NONE, Method: SUSPENSION/PLATE inactive; negative. reevaluation of results: negative | Test System: MOUSE LYMPHOMA, Strain/Indicator: L5178Y (TK+/TK-), Metabolic Activation: RAT, LIVER, S-9, AROCLOR 1254, Method: SUSPENSION/PLATE inactive; negative. reevaluation of results: negative
